Assay: Water retention property test 2 (hydrates)
Format: physicochemical
Conditions: hydrate (anhydrides: aqueous solution at mono- to trihydrate concentration); for Pre-test moisture rate: before the test; for Post-test moisture rate / Rate of reduction in moisture: unsealed, 24 hours at 40° C. and 25% RH
Experimental: (2) Water retention property test 2 The water retention property of the hydrate of each compound was evaluated. Hydrates were used in the cases of the compounds C1 to C38, C40 to C49 and C56 to C59; however, since the compounds C39 and C62 to C64 were anhydrides, there were used aqueous solutions prepared by adding water so that a concentration would be that of monohydrate to trihydrate. The moisture rate of the sample(s) was confirmed using a Karl Fischer moisture meter (pre-test moisture rate: A). Next, 1.0 g of each of these samples was added to a screw tube, and this screw tube, while remaining unsealed, was then left to stand still for 24 hours in a thermo-hygrostat set to 40° C. and 25% RH. A moisture rate after 24 hours was again measured (post-test moisture rate: B), followed by calculating a rate of reduction in moisture in a similar manner as above so as to evaluate the water retention property. Here, a comparative evaluation was performed on each hydrate of the compounds C1 to C38, C40 to C49 and C56 to C59 together with an aqueous solution(s) of the compound C39 having a concentration(s) corresponding to the numbers of these hydration waters.
(monohydrates in compounds C1 to C38, C40 to C49 and C56 to C59 of working examples C62 to C99, C103 to C116 with compound C39 of working example C100, compound C62 of comparative example C4, compound C63 of comparative example C7 and compound C64 of comparative example C10)
(dihydrates in compounds C1 to C38, C40 to C49 and C56 to C59 of working examples C62 to C99, C103 to C116 with compound C39 of working example C101, compound C62 of comparative example C5, compound C63 of comparative example C8 and compound C64 of comparative example C11)
(trihydrates in compounds C1 to C38, C40 to C49 and C56 to C59 of working examples C62 to C99, C103 to C116 with compound C39 of working example C102, compound C62 of comparative example C6, compound C63 of comparative example C9 and compound C64 of comparative example C12)

C[N+](C)(C)CCO.O=[PH2][O-] [Working example C95]
Pre-test moisture rate: 9.6%
Post-test moisture rate: 9.3%
Rate of reduction in moisture: 2.9%

CC(O)C(=O)[O-].C[N+](C)(C)CCO [Working example C90]
Pre-test moisture rate: 8.5%
Post-test moisture rate: 8.1%
Rate of reduction in moisture: 4.9%

CS(=O)(=O)[O-].C[N+](C)(C)CCO [Working example C93]
Pre-test moisture rate: 8.3%
Post-test moisture rate: 8.1%
Rate of reduction in moisture: 2.0%

NC(CO)(CO)CO.O=C1OC(C(O)CO)C(O)=C1O (stereo not drawn) [Working example C108]
Pre-test moisture rate: 10.8%
Post-test moisture rate: 10.5%
Rate of reduction in moisture: 2.8%

CS(=O)(=O)O.NC(CO)(CO)CO [Working example C83]
Pre-test moisture rate: 14.2%
Post-test moisture rate: 14.0%
Rate of reduction in moisture: 1.1%

NC(CO)CO.O=C(O)CO [Working example C68]
Pre-test moisture rate: 17.7%
Post-test moisture rate: 17.3%
Rate of reduction in moisture: 2.0%

NCCO.O=C1O[C@H]([C@@H](O)CO)C(O)=C1O [Working example C103]
Pre-test moisture rate: 13.2%
Post-test moisture rate: 13.0%
Rate of reduction in moisture: 1.5%

C[N+](C)(C)CCO.O=C([O-])C=CC(=O)O [Working example C91]
Pre-test moisture rate: 7.6%
Post-test moisture rate: 7.2%
Rate of reduction in moisture: 5.0%

CC(O)C(=O)[O-].CCCC[N+](CCCC)(CCCC)CCCC [Working example C102]
Pre-test moisture rate: 14.0%
Post-test moisture rate: 12.3%
Rate of reduction in moisture: 12.0%

CCCC[N+](CCCC)(CCCC)CCCC.[Br-] [Comparative example C5]
Pre-test moisture rate: 10.1%
Post-test moisture rate: 8.6%
Rate of reduction in moisture: 15.1%

CCCCn1cc[n+](C)c1.F[B-](F)(F)F [Comparative example C7]
Pre-test moisture rate: 7.4%
Post-test moisture rate: 3.9%
Rate of reduction in moisture: 47.3%

Cl.NC(CO)CO [Working example C75]
Pre-test moisture rate: 22.0%
Post-test moisture rate: 19.7%
Rate of reduction in moisture: 10.5%

C[N+](C)(C)CCO.O=P([O-])(O)O [Working example C94]
Pre-test moisture rate: 8.2%
Post-test moisture rate: 8.0%
Rate of reduction in moisture: 2.8%

CCC(N)(CO)CO.O=C1O[C@H]([C@@H](O)CO)C(O)=C1O [Working example C107]
Pre-test moisture rate: 10.9%
Post-test moisture rate: 10.6%
Rate of reduction in moisture: 2.8%

C[N+](C)(C)CCO.O=C1OC(C(O)CO)C([O-])=C1O (stereo not drawn) [Working example C110]
Pre-test moisture rate: 11.4%
Post-test moisture rate: 11.2%
Rate of reduction in moisture: 1.8%

C[N+](C)(C)CC(O)CC(=O)O.O=C1O[C@H]([C@@H](O)CO)C([O-])=C1O [Working example C111]
Pre-test moisture rate: 9.7%
Post-test moisture rate: 9.6%
Rate of reduction in moisture: 1.0%

O=C(O)CO.OCCNCCO [Working example C64]
Pre-test moisture rate: 16.6%
Post-test moisture rate: 16.1%
Rate of reduction in moisture: 3.0%

CC(O)C(=O)[O-].OCC[N+](CCO)(CCO)CCO [Working example C87]
Pre-test moisture rate: 11.2%
Post-test moisture rate: 10.7%
Rate of reduction in moisture: 4.8%

CC(=O)[O-].C[N+](C)(C)CCO [Working example C88]
Pre-test moisture rate: 9.9%
Post-test moisture rate: 9.5%
Rate of reduction in moisture: 4.0%

CC(O)C(=O)[O-].CCC(CO)(CO)[N+](CC(O)CO)(CC(O)CO)CC(O)CO (stereo not drawn) [Working example C86]
Pre-test moisture rate: 7.9%
Post-test moisture rate: 7.5%
Rate of reduction in moisture: 4.8%

CC(N)(CO)CO.CC(O)C(=O)O [Working example C114]
Pre-test moisture rate: 15.6%
Post-test moisture rate: 15.2%
Rate of reduction in moisture: 2.8%

CC(O)C(=O)O.N (stereo not drawn) [Working example C85]
Pre-test moisture rate: 14.4%
Post-test moisture rate: 13.7%
Rate of reduction in moisture: 4.7%

NC(CO)CO.O=C(O)CCC(=O)O [Working example C70]
Pre-test moisture rate: 14.7%
Post-test moisture rate: 13.9%
Rate of reduction in moisture: 5.4%

CC(O)C(=O)O.CCC(N)(CO)CO [Working example C76]
Pre-test moisture rate: 14.7%
Post-test moisture rate: 14.3%
Rate of reduction in moisture: 3.0%

CC(O)C(=O)O.NCC(O)C(O)C(O)C(O)CO (stereo not drawn) [Working example C84]
Pre-test moisture rate: 11.7%
Post-test moisture rate: 11.4%
Rate of reduction in moisture: 2.8%

CCCC[N+](CCCC)(CCCC)CCCC.[Br-] [Comparative example C6]
Pre-test moisture rate: 14.4%
Post-test moisture rate: 10.8%
Rate of reduction in moisture: 25.1%

CCCCn1cc[n+](C)c1.F[B-](F)(F)F [Comparative example C9]
Pre-test moisture rate: 19.3%
Post-test moisture rate: 11.2%
Rate of reduction in moisture: 42.1%

NC(CO)(CO)CO.O=C(O)CC(O)(CC(=O)O)C(=O)O [Working example C82]
Pre-test moisture rate: 10.3%
Post-test moisture rate: 9.8%
Rate of reduction in moisture: 5.0%

O=C(O)CCC(=O)O.OCCNCCO [Working example C65]
Pre-test moisture rate: 13.9%
Post-test moisture rate: 13.1%
Rate of reduction in moisture: 6.0%

F[B-](F)(F)F.[NH3+]C(CO)CO [Working example C73]
Pre-test moisture rate: 16.8%
Post-test moisture rate: 15.9%
Rate of reduction in moisture: 5.5%

C[N+](C)(C)CCO.[Cl-] [Working example C96]
Pre-test moisture rate: 11.4%
Post-test moisture rate: 10.7%
Rate of reduction in moisture: 6.0%

NCC(O)C(O)C(O)C(O)CO.O=C1OC(C(O)CO)C(O)=C1O (stereo not drawn) [Working example C109]
Pre-test moisture rate: 9.2%
Post-test moisture rate: 9.1%
Rate of reduction in moisture: 1.1%

OCC(O)CO [Comparative example C12]
Pre-test moisture rate: 37.0%
Post-test moisture rate: 31.9%
Rate of reduction in moisture: 13.7%

O=C1OC(C(O)CO)C(O)=C1O.OCCN(CCO)CCO (stereo not drawn) [Comparative example C105]
Pre-test moisture rate: 10.0%
Post-test moisture rate: 9.8%
Rate of reduction in moisture: 2.0%

OCC(O)CO [Comparative example C11]
Pre-test moisture rate: 28.1%
Post-test moisture rate: 24.4%
Rate of reduction in moisture: 13.3%

Br.NC(CO)CO [Working example C74]
Pre-test moisture rate: 17.3%
Post-test moisture rate: 15.7%
Rate of reduction in moisture: 9.5%

CCCCn1cc[n+](C)c1.F[B-](F)(F)F [Comparative example C8]
Pre-test moisture rate: 13.8%
Post-test moisture rate: 7.1%
Rate of reduction in moisture: 48.6%

C[N+](C)(CCO)CC(O)CO.[Cl-] (stereo not drawn) [Working example C98]
Pre-test moisture rate: 15.3%
Post-test moisture rate: 14.0%
Rate of reduction in moisture: 8.7%

CC(O)C(=O)O.NC(CO)CO (stereo not drawn) [Working example C69]
Pre-test moisture rate: 16.6%
Post-test moisture rate: 16.1%
Rate of reduction in moisture: 2.8%

Source: patent US20250090437A1, “COSMETIC COMPOUNDING AGENT, COSMETIC AND PRODUCTION METHOD THEREOF” (MIYOSHI OIL & FAT CO., LTD., priority 2019, published 2025)
